Measurements as given in PubChem BioAssay AID256 (DTP/NCI, 2004).
Several values for one entry are separate records, joined by “and”; a condition that tells them apart may be missing. Equal values may be shown once. Toxic doses and inconclusive results are not listed. Rule for the calls: active = survival T/C of 150% or more; inactive = T/C below 125% in these data.

Tested on: CD2F1 mice, L1210 leukemia ip, survival T/C
Assay: NCI In Vivo Anticancer Drug Screen. Data for tumor model L1210 Leukemia (intraperitoneal) in CD2F1 (CDF1) mice
Conditions: endpoint: mean survival time, higher = longer survival
Procedure, shortened: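 Mice carrying a transplanted tumor received test compound or vehicle alone. The value is the measurement in the treated group divided by that in the vehicle-treated control group.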

[1] = dose: 12.5 mg/kg/injection, schedule: Q01DX009 (ip), vehicle: saline with Tween-80
[2] = dose: 25.0 mg/kg/injection, schedule: Q01DX009 (ip), vehicle: saline with Tween-80
[3] = dose: 50.0 mg/kg/injection, schedule: Q01DX009 (ip), vehicle: saline with Tween-80
[4] = dose: 100.0 mg/kg/injection, schedule: Q01DX009 (ip), vehicle: saline with Tween-80
[5] = dose: 200.0 mg/kg/injection, schedule: Q01DX009 (ip), vehicle: saline with Tween-80
[6] = dose: 400.0 mg/kg/injection, schedule: Q01DX009 (ip), vehicle: saline with Tween-80
[7] = dose: 100.0 mg/kg/injection, schedule: Q04DX003 (ip), vehicle: saline with Tween-80
[8] = dose: 200.0 mg/kg/injection, schedule: Q04DX003 (ip), vehicle: saline with Tween-80
[9] = dose: 400.0 mg/kg/injection, schedule: Q04DX003 (ip), vehicle: saline with Tween-80
[10] = dose: 100.0 mg/kg/injection, schedule: Q01DX001 (ip), vehicle: saline with Tween-80
[11] = dose: 200.0 mg/kg/injection, schedule: Q01DX001 (ip), vehicle: saline with Tween-80
[12] = dose: 400.0 mg/kg/injection, schedule: Q01DX001 (ip), vehicle: saline with Tween-80
[13] = dose: 6.25 mg/kg/injection, schedule: Q01DX009 (ip), vehicle: saline with Tween-80
[14] = dose: 100.0 mg/kg/injection, schedule: Q04DX003 (ip), vehicle: saline
[15] = dose: 200.0 mg/kg/injection, schedule: Q04DX003 (ip), vehicle: saline

Measured: T/C

CCOC(=O)c1ccc(NC(=O)Nc2nccs2)cc1
inactive: dose: 6.25 mg/kg/injection, schedule: Q01DX009 (ip), vehicle: Klucel (hydroxypropylcellulose) (HPC) 101 % of control | dose: 6.25 mg/kg/injection, schedule: Q01DX009 (oral), vehicle: Klucel (hydroxypropylcellulose) (HPC) 101 % of control | dose: 12.5 mg/kg/injection, schedule: Q01DX009 (ip), vehicle: Klucel (hydroxypropylcellulose) (HPC) 100 % of control | [1] 108 % of control | dose: 12.5 mg/kg/injection, schedule: Q01DX009 (oral), vehicle: Klucel (hydroxypropylcellulose) (HPC) 100 % of control | dose: 12.5 mg/kg/injection, schedule: Q01DX009 (oral), vehicle: saline with Tween-80 103 % of control | dose: 25.0 mg/kg/injection, schedule: Q01DX009 (ip), vehicle: Klucel (hydroxypropylcellulose) (HPC) 97 % of control | [2] 110 % of control | dose: 25.0 mg/kg/injection, schedule: Q01DX009 (oral), vehicle: Klucel (hydroxypropylcellulose) (HPC) 100 % of control | dose: 25.0 mg/kg/injection, schedule: Q01DX009 (oral), vehicle: saline with Tween-80 97 % of control | dose: 50.0 mg/kg/injection, schedule: Q01DX009 (ip), vehicle: Klucel (hydroxypropylcellulose) (HPC) 97 % of control | [3] 114 % of control and 122 % of control | dose: 50.0 mg/kg/injection, schedule: Q01DX009 (oral), vehicle: Klucel (hydroxypropylcellulose) (HPC) 105 % of control | dose: 50.0 mg/kg/injection, schedule: Q01DX009 (oral), vehicle: saline with Tween-80 100 % of control | dose: 100.0 mg/kg/injection, schedule: Q01DX009 (ip), vehicle: Klucel (hydroxypropylcellulose) (HPC) 105 % of control | [4] 121 % of control and 110 % of control | dose: 100.0 mg/kg/injection, schedule: Q01DX009 (oral), vehicle: Klucel (hydroxypropylcellulose) (HPC) 95 % of control | dose: 100.0 mg/kg/injection, schedule: Q01DX009 (oral), vehicle: saline with Tween-80 101 % of control | dose: 200.0 mg/kg/injection, schedule: Q01DX009 (ip), vehicle: Klucel (hydroxypropylcellulose) (HPC) 110 % of control | [5] 106 % of control | dose: 200.0 mg/kg/injection, schedule: Q01DX009 (oral), vehicle: Klucel (hydroxypropylcellulose) (HPC) 100 % of control | dose: 200.0 mg/kg/injection, schedule: Q01DX009 (oral), vehicle: saline with Tween-80 95 % of control | [6] 121 % of control | dose: 400.0 mg/kg/injection, schedule: Q01DX009 (oral), vehicle: saline with Tween-80 97 % of control

CC(=O)OCCC/C(=C\c1ccc(Cl)cc1)[N+](=O)[O-]
inactive: dose: 100.0 mg/kg/injection, schedule: Q01DX001 (ip), vehicle: saline 100 % of control | dose: 200.0 mg/kg/injection, schedule: Q01DX001 (ip), vehicle: saline 102 % of control | dose: 400.0 mg/kg/injection, schedule: Q01DX001 (ip), vehicle: saline 98 % of control

Cc1c(Cl)cccc1NS(=O)(=O)c1cccc([N+](=O)[O-])c1
inactive: [7] 88 % of control | [8] 92 % of control | [9] 86 % of control

O=C1N(Cc2ccccc2)CCS1(=O)=O
inactive: dose: 75.0 mg/kg/injection, schedule: Q01DX001 (ip), vehicle: other 96 % of control | dose: 150.0 mg/kg/injection, schedule: Q01DX001 (ip), vehicle: other 106 % of control

COn1c(-c2ccccc2)nc2c1C(=O)N(C)CN2C
inactive: dose: 12.5 mg/kg/injection, schedule: Q01DX005 (ip), vehicle: other 96 % of control | dose: 25.0 mg/kg/injection, schedule: Q01DX005 (ip), vehicle: other 96 % of control | dose: 50.0 mg/kg/injection, schedule: Q01DX005 (ip), vehicle: other 96 % of control | dose: 100.0 mg/kg/injection, schedule: Q01DX005 (ip), vehicle: other 95 % of control | dose: 200.0 mg/kg/injection, schedule: Q01DX005 (ip), vehicle: other 96 % of control

O=C(O)CNC1CCCC1
inactive: [10] 97 % of control | [11] 100 % of control | [12] 93 % of control

O=C(Nc1cccc(Cl)c1)c1ccccc1
inactive: [4] 103 % of control | [7] 91 % of control | [5] 89 % of control | [8] 110 % of control | [6] 98 % of control | [9] 94 % of control

CCOc1ccc(Nc2nc(C(Cl)(Cl)Cl)cc(C(Cl)(Cl)Cl)n2)cc1CN(CC)CC
inactive: [13] 101 % of control | dose: 6.25 mg/kg/injection, schedule: Q04DX003 (ip), vehicle: saline with Tween-80 97 % of control | [1] 100 % of control | dose: 12.5 mg/kg/injection, schedule: Q04DX003 (ip), vehicle: saline with Tween-80 101 % of control | [2] 102 % of control | dose: 25.0 mg/kg/injection, schedule: Q04DX003 (ip), vehicle: saline with Tween-80 95 % of control

Cc1[se]c2ccccc2[n+]1C
inactive: dose: 75.0 mg/kg/injection, schedule: Q01DX001 (ip), vehicle: saline 98 % of control | dose: 150.0 mg/kg/injection, schedule: Q01DX001 (ip), vehicle: saline 107 % of control

COc1ccc(NC(=O)Oc2c(Cl)cc(Cl)c3ccccc23)cc1
inactive: dose: 100.0 mg/kg/injection, schedule: Q04DX002 (ip), vehicle: saline with Tween-80 93 % of control | dose: 200.0 mg/kg/injection, schedule: Q04DX002 (ip), vehicle: saline with Tween-80 93 % of control | dose: 400.0 mg/kg/injection, schedule: Q04DX002 (ip), vehicle: saline with Tween-80 101 % of control

O=C1C(c2ccccc2)=C(c2ccccc2)c2ccc(Cl)cc21
inactive: [10] 106 % of control | [11] 98 % of control | [12] 97 % of control

NS(=O)(=O)c1cccc([As](=O)(O)O)c1
inactive: dose: 50.0 mg/kg/injection, schedule: Q04DX003 (ip), vehicle: saline 105 % of control | [14] 95 % of control | [15] 94 % of control

O/N=C/C=N/O.O/N=C/C=N/O.[Pd]
inactive: [13] 100 % of control

CCCCCC(C)SC#N (configuration not stated)
inactive: [4] 97 % of control

CCCN(CCC)S(=O)(=O)c1ccc(NC(=O)OC2CCC3(C)C(=CCC4C3CCC3(C)C(C(C)CCCC(C)C)CCC43)C2)cc1 (configuration not stated)
inactive: dose: 100.0 mg/kg/injection, schedule: Q01DX001 (sc), vehicle: steriod suspending solution 105 % of control | dose: 200.0 mg/kg/injection, schedule: Q01DX001 (sc), vehicle: steriod suspending solution 97 % of control | dose: 400.0 mg/kg/injection, schedule: Q01DX001 (sc), vehicle: steriod suspending solution 101 % of control

COC(=O)C1(C)CCCC2(C)C1CCC13C2CC1C1(C(C)C)OC31 (configuration not stated)
inactive: [7] 89 % of control | [8] 92 % of control

COCC1C2CCC(C2)C1COC (configuration not stated)
inactive: [10] 104 % of control | [11] 92 % of control | [12] 97 % of control

NC(=S)c1csc(CCNC(=O)c2ccccc2)n1
inactive: [10] 100 % of control | [4] 98 % of control | [14] 96 % of control | [11] 97 % of control | [5] 98 % of control | [15] 89 % of control | [12] 97 % of control | [6] 100 % of control | dose: 400.0 mg/kg/injection, schedule: Q04DX003 (ip), vehicle: saline 93 % of control

O=C1/C(=N/O)Cc2ccccc21
inactive: [1] 97 % of control

O=C(N/N=C/c1ccc2c(c1)OCO2)c1cccc(C(F)(F)F)c1
inactive: [1] 95 % of control | [2] 91 % of control | [3] 91 % of control and 104 % of control | [5] 89 % of control

Nc1ncc2ccccc2c1-c1ccc(NC(=O)CN(CCCl)CCCl)cc1
inactive: dose: 25.0 mg/kg/injection, schedule: Q04DX003 (ip), vehicle: other 106 % of control | dose: 50.0 mg/kg/injection, schedule: Q04DX003 (ip), vehicle: other 106 % of control | dose: 100.0 mg/kg/injection, schedule: Q04DX003 (ip), vehicle: other 103 % of control | dose: 200.0 mg/kg/injection, schedule: Q04DX003 (ip), vehicle: other 109 % of control | dose: 400.0 mg/kg/injection, schedule: Q04DX003 (ip), vehicle: other 112 % of control

Nc1ccc(-c2ccccc2-c2ccccc2)cc1
inactive: dose: 100.0 mg/kg/injection, schedule: Q01DX009 (ip), vehicle: acetone 101 % of control | dose: 200.0 mg/kg/injection, schedule: Q01DX009 (ip), vehicle: acetone 105 % of control

COC1=[C]([Hg][Br])C(OC)OC1OC (configuration not stated)
inactive: dose: 5.0 mg/kg/injection, schedule: Q01DX001 (ip), vehicle: saline 98 % of control | dose: 10.0 mg/kg/injection, schedule: Q01DX001 (ip), vehicle: saline 102 % of control | dose: 20.0 mg/kg/injection, schedule: Q01DX001 (ip), vehicle: saline 110 % of control
